ChEMBL document CHEMBL2074564, “P-glycoprotein interactions of nefazodone and trazodone in cell culture” (J Clin Pharmacol, 2001)

Legend:
Type in all cases: functional, cell-based
[1] = molecular target: T1, ATP-dependent translocase ABCB1 (Homo sapiens, UniProt P08183); test: TP_TRANSPORTER: Western blot, LS180V cell
[2] = molecular target: T1, ATP-dependent translocase ABCB1; test: TP_TRANSPORTER: inhibition of Rhodamine 123 transepithelial transport (basal to apical) (R123: 5 uM) in Caco-2 cells
[3] = molecular target: T1, ATP-dependent translocase ABCB1; test: TP_TRANSPORTER: transepithelial transport (basal to apical) in Caco-2 cells

T1 sequence (P08183 whole entry): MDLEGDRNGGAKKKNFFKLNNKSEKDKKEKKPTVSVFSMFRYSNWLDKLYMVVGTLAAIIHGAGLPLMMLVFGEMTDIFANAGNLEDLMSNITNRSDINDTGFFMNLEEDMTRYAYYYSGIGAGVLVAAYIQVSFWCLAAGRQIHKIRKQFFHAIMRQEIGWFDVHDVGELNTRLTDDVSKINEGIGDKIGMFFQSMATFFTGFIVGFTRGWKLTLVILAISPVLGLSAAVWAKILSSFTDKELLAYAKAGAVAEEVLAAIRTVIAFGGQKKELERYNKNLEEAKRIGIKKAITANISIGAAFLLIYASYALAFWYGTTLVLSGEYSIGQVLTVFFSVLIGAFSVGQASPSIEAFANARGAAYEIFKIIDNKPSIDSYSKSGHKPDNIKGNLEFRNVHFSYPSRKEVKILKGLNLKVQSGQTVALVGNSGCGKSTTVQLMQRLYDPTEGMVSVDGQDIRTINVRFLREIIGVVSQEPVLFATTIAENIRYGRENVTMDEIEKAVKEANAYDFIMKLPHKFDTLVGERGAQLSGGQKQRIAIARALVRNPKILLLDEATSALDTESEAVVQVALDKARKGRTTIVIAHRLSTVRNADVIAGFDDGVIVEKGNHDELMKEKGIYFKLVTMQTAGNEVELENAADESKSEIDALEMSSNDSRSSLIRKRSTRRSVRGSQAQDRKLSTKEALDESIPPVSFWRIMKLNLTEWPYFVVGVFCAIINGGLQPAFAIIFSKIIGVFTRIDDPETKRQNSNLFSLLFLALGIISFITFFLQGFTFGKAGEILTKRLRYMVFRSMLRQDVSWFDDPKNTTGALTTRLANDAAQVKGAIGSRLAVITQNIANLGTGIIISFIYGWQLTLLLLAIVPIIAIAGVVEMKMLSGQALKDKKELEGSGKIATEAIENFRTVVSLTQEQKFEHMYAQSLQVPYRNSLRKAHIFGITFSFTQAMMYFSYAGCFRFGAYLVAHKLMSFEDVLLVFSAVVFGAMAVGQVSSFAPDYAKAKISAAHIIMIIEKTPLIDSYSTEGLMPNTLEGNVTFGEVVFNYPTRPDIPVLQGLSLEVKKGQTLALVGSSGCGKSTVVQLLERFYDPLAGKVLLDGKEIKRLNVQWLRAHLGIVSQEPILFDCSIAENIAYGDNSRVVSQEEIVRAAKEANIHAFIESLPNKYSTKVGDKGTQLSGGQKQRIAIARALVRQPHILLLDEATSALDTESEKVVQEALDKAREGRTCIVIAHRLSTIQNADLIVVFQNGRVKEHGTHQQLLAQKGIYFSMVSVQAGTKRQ

| Compound | Activity [1] | IC50 [2] [µM] | Activity [3] |
| --- | --- | --- | --- |
| CCc1nn(CCCN2CCN(c3cccc(Cl)c3)CC2)c(=O)n1CCOc1ccccc1 [NEFAZODONE] | inducer [+] | 4.7 | is not a substrate [-] |
| O=c1n(CCCN2CCN(c3cccc(Cl)c3)CC2)nc2ccccn12 [TRAZODONE] | inducer [+] |  |  |
